Values joined by “and” are separate entries in the source; they are usually repeats but may differ in a detail not shown here. Equal entries are not always repeated. Where two headings read alike, the source gives them in different places.
How the values were obtained:
Mu Opioid Receptor (MOR) [1] = biological target: T1, Mu Opioid Receptor (MOR) (Homo sapiens, UniProt P35372); experiment: biochemical; conditions: for Emax: read-out: MOR EMAX (35S-GTPγS)
[2] = biological target: T2, Serotonin Transporter (SERT) (Homo sapiens, UniProt P31645); experiment: cell-based
T2 construct: HA (N); host or cells: HEK293 (ATCC CRL-1573), electroporated, G418-selected population
T2 sequence (P31645 whole entry): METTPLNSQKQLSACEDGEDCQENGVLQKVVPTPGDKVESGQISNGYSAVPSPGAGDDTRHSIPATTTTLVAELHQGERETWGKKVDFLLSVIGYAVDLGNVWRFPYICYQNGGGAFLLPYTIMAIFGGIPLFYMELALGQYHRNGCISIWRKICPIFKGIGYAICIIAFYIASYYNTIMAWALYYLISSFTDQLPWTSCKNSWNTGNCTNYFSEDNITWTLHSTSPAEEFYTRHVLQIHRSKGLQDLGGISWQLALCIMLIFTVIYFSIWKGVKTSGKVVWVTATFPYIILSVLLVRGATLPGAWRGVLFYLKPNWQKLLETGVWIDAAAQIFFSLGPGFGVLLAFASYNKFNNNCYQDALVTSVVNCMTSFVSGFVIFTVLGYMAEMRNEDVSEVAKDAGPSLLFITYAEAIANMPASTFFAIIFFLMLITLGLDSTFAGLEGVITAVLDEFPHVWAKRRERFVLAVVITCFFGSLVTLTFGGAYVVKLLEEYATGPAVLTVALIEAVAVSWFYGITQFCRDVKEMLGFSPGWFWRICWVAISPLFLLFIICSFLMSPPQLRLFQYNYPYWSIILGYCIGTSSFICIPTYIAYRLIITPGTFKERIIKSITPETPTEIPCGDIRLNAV

Sigma-1 Receptor (σ1R) = biological target: T3, Sigma-1 Receptor (σ1R) (Homo sapiens, UniProt Q99720); experiment: biochemical; type: binding
T3 construct: HA (N); host or cells: HEK293 (ATCC CRL-1573), electroporated, G418-selected population; membranes used
T3 sequence (Q99720 whole entry): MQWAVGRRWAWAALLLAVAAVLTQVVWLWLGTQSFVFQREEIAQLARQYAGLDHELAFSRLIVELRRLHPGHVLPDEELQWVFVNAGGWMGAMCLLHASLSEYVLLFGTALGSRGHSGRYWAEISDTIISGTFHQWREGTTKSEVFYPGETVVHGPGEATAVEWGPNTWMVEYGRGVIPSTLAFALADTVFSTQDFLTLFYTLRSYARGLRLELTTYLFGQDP

[3] = biological target: T4, Cannabinoid Receptor Type 1 (CB1) (Homo sapiens, UniProt P21554); experiment: biochemical
T4 construct: membranes used
T4 sequence (P21554 whole entry): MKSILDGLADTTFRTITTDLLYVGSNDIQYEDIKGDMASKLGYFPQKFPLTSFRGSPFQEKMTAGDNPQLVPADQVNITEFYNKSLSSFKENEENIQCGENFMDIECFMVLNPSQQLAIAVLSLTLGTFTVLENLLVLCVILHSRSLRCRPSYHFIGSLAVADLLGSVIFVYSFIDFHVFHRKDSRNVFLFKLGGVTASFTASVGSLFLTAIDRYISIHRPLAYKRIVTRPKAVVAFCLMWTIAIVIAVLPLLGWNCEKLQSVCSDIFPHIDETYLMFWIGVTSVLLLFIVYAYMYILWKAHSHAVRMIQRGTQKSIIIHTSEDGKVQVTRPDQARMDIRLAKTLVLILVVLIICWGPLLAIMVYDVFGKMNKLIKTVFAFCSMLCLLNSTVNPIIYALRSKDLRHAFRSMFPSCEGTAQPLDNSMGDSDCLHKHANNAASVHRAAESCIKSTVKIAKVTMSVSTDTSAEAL

[4] = cited from earlier work
[5] = biological target: T5, Kappa Opioid Receptor (KOR) (Homo sapiens, UniProt P41145); experiment: biochemical; type: binding
T5 construct: membranes used
T5 sequence (P41145 whole entry): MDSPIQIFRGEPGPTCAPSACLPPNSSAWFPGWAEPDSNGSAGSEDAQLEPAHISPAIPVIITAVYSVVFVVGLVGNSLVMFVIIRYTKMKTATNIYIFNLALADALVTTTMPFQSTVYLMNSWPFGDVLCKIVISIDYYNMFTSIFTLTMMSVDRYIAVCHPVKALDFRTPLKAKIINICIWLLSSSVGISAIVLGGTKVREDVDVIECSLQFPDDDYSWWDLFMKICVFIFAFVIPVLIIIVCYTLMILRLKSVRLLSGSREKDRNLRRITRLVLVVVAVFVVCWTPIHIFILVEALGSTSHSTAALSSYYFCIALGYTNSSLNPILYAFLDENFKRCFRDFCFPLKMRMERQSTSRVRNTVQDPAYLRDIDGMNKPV

[6] = biological target: T6, Delta Opioid Receptor (DOR) (Homo sapiens, UniProt P41143); type: biochemical
T6 construct: 3X-hemagglutinin (HA) (N); expressed in transfected cells; membranes used
T6 sequence (P41143 whole entry): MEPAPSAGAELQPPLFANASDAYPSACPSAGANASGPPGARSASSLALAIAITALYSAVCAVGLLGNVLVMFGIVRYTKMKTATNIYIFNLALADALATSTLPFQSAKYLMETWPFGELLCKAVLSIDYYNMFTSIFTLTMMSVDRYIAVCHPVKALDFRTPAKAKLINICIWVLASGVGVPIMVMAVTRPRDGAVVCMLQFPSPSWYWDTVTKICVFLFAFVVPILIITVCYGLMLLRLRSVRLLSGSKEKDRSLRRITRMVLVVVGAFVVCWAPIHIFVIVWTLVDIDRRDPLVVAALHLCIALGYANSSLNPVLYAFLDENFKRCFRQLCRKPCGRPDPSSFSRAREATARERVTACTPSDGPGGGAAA

[7] = biological target: T5, Kappa Opioid Receptor (KOR); experiment: biochemical; conditions: for Emax at 10 µM: read-out: KOR EMAX, in parentheses: maximum efficacy at 10 μM
[8] = biological target: T7, Norepinephrine Transporter (NET) (Homo sapiens, UniProt P23975); experiment: cell-based; conditions: for Emax at 10 µM: read-out: NET IMAX, in parentheses: maximum efficacy at 10 μM
T7 construct: HA (N); host or cells: HEK293 (ATCC CRL-1573), electroporated, G418-selected population
T7 sequence (P23975 whole entry): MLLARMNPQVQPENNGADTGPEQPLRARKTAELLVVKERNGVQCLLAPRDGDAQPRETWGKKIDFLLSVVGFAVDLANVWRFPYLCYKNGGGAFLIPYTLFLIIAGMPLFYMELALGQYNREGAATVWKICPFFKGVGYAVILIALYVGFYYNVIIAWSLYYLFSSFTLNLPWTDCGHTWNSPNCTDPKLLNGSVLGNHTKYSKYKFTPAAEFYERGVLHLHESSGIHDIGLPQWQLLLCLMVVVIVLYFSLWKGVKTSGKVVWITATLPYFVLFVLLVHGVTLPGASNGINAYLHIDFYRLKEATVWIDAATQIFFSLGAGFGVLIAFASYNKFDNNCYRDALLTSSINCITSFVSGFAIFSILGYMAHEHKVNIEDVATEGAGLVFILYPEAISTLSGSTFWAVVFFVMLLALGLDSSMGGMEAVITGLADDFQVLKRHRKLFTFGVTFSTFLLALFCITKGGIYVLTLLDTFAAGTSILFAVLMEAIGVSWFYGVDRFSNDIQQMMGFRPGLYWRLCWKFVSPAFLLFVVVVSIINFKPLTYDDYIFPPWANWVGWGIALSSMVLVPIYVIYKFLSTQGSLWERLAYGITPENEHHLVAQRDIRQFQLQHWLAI

[9] = biological target: T5, Kappa Opioid Receptor (KOR); type: biochemical
MOR = conditions: cited from earlier work
CD-1 mice = conditions: male CD-1 mice
Mu Opioid Receptor (MOR) [10] = biological target: T1, Mu Opioid Receptor (MOR); experiment: biochemical; type: binding
[11] = biological target: T2, Serotonin Transporter (SERT); experiment: biochemical; type: binding
[12] = biological target: T8, Dopamine Transporter (DAT) (Homo sapiens, UniProt Q01959); experiment: biochemical; type: binding
T8 construct: HA (N); host or cells: HEK293 (ATCC CRL-1573), electroporated, G418-selected population
T8 sequence (Q01959 whole entry): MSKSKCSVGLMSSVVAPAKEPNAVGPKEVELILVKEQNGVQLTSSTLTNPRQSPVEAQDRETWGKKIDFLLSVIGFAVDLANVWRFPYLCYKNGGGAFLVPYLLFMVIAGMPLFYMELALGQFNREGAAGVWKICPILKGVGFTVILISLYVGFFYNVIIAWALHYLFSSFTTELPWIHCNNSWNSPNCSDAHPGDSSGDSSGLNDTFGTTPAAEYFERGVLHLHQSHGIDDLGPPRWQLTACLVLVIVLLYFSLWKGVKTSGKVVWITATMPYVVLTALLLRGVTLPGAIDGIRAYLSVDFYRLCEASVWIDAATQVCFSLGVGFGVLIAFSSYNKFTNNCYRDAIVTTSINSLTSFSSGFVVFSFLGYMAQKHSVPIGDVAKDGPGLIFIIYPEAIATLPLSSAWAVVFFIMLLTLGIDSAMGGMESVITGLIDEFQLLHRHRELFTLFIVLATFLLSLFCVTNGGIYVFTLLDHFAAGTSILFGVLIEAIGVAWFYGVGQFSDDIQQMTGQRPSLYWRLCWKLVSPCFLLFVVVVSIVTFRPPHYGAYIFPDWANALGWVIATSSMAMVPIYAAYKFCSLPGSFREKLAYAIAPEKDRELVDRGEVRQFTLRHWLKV

[13] = biological target: T8, Dopamine Transporter (DAT); experiment: cell-based; type: cell-based; conditions: for Emax at 10 µM: read-out: DAT IMAX, in parentheses: maximum efficacy at 10 μM

T1 sequence (P35372 whole entry): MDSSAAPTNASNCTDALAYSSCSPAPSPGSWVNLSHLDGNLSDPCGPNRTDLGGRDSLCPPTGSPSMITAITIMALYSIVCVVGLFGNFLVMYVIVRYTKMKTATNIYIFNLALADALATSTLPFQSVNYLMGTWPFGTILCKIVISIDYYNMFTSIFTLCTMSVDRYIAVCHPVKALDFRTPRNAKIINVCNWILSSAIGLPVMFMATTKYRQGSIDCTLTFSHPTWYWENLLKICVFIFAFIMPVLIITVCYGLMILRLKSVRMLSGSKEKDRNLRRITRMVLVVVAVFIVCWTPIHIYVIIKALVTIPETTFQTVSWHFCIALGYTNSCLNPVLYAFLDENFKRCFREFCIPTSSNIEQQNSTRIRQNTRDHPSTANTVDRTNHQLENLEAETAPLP

Compound: NC(=O)[C@H](Cc1ccccc1)NC(=O)[C@H](Cc1ccccc1)NC(=O)[C@@H]1CCCN1C(=O)[C@@H](N)Cc1ccc(O)cc1 [Endomorphin-2]
- Emax (Mu Opioid Receptor (MOR) [1]): 97 ± 2%

Compound: Fc1ccc(C(OCCN2CCN(CCCc3ccccc3)CC2)c2ccc(F)cc2)cc1 [GBR12909]
- SERT IMAX (transporter assay) [2]: 100 ± 0.4%

Compound: COc1ccc2c3c1O[C@H]1C(=O)CC[C@H]4[C@@H](C2)N(C)CC[C@]314 [Hydrocodone]
- Ki (Sigma-1 Receptor (σ1R)): 4000 ± 1300 nM
- Potential new finding: σ1R binding (in words) (Sigma-1 Receptor (σ1R)): KOR partial agonist; CB1 partial agonist; σ1R binding

Compound: CN1CC[C@]23c4c5ccc(O)c4O[C@H]2[C@@H](O)C=C[C@H]3[C@H]1C5 [Morphine]
- EC50 [3]: > 2000 nM
- Potential new finding: activity at CB1 (in words) [3]: CB1 partial agonist
- Emax at 10 µM ([3]; read-out: CB1 EMAX, in parentheses: maximum efficacy at 10 μM): > 41.5%
- operational efficacy τ in vivo ([4]; ref [13]–[15]): 20–39 and 39

Compound: CN(C)C[C@H]1CCCC[C@]1(O)c1cccc(O)c1 [O-Desmethyl-Tramadol, O-desmethyl-tramadol]
- Ki ([5]; read-out: Target Binding Affinity Determined by Competition Radioligand Binding–KI, KOR): > 2000 nM
- DOR EMAX (35S-GTPγS) [6]: 38 ± 14%
- Potential new finding: activity at DOR (in words) [6]: DOR/KOR partial agonist
- EC50 ([6]; read-out: DOR EC50 (35S-GTPγS)): 361 nM and 360 nM
- KOR EMAX, in parentheses: maximum efficacy at 10 μM [7]: (5.9) %
- Potential new finding: activity at KOR (in words) [7]: DOR/KOR partial agonist
- EC50 ([7]; read-out: KOR EC50 (35S-GTPγS)): > 2000 nM
- NET IMAX, in parentheses: maximum efficacy at 10 μM [8]: (29) %
- IC50 ([8]; read-out: NET IC50 (transporter assay)): > 2000 nM

Compound: COc1ccc2c3c1O[C@H]1C(=O)CC[C@@]4(O)[C@@H](C2)N(C)CC[C@]314 [Oxycodone]
- Emax (Mu Opioid Receptor (MOR) [1]): 90 ± 8%
- Emax at 10 µM [7]: 9.6%
- KOR antagonist activity (in words) [9]: no KOR antagonist activity
- operational efficacy τ in vivo [4]: 20–39
- operational efficacy τ in vitro (MOR): 3.3–5.2

Compound: CNCC[C@H](Oc1cccc2ccccc12)c1cccs1 [S-Duloxetine, S-duloxetine]
- AUC increase of buprenorphine anti-nociception (tail flick) (CD-1 mice; duloxetine 20 mg/kg intraperitoneal 10 minutes before buprenorphine 0.2 mg/kg subcutaneous, 52°C water, 2 hour time course): 50.6%
- Effect on oxymorphone anti-nociception (tail flick) (CD-1 mice; duloxetine 20 mg/kg intraperitoneal 10 minutes before oxymorphone 0.3 mg/kg subcutaneous, p > 0.05): no effect
- Effect on tail flick baselines (CD-1 mice; duloxetine 20 mg/kg intraperitoneal alone (followed by vehicle)): no effect

Compound: CC[C@@H](c1cccc(O)c1)[C@@H](C)CN(C)C [Tapentadol]
- Ki (Mu Opioid Receptor (MOR) [10]): 2100 ± 84 nM
- Ki [5]: > 2000 nM
- Ki (Sigma-1 Receptor (σ1R)): 2600 ± 410 nM
- Potential new finding: σ1R binding (in words) (Sigma-1 Receptor (σ1R)): KOR partial agonist; σ1R binding
- σ1R binding affinity fold vs. MOR affinity (Sigma-1 Receptor (σ1R)): nearly the same affinity as the MOR and approximately equal affinity to MOR and same
- Ki [11]: > 2000 nM
- Ki [12]: > 2000 nM
- EC50 (Mu Opioid Receptor (MOR) [1]; MOR EC50 (35S-GTPγS)): 1300 ± 530 nM
- Emax (Mu Opioid Receptor (MOR) [1]): 73 ± 7%
- Potential new finding: activity at KOR (in words) [7]: KOR partial agonist; σ1R binding
- EC50 ([7]; KOR EC50 (35S-GTPγS)): > 2000 nM
- Emax at 10 µM [7]: 13%
- IC50 [8]: > 2000 nM
- Emax at 10 µM [8]: 61%
- IC50 [2]: > 2000 nM
- Emax at 10 µM ([2]; read-out: SERT IMAX, in parentheses: maximum efficacy at 10 μM): 68%
- IC50 [13]: > 10000 nM
- Emax at 10 µM [13]: 19%

Compound: COc1cccc(C2(O)CCCCC2CN(C)C)c1 (stereo not shown) [Tramadol]
- Ki [5]: 890 ± 33 nM
- Ki [12]: > 2000 nM
- MOR EMAX (35S-GTPγS) (Mu Opioid Receptor (MOR) [1]): 26 ± 6%
- Emax (Mu Opioid Receptor (MOR) [1]): 25.5%
- Emax at 10 µM [8]: 57%
- IC50 [13]: > 10000 nM
- Emax at 10 µM [13]: 22%
- KOR antagonist activity (in words) [9]: no KOR antagonist activity

Compound: CCC(=O)C(CC(C)N(C)C)(c1ccccc1)c1ccccc1 (stereo not shown) [methadone]
- operational efficacy τ in vivo [4]: 39

Compound: Buprenorphine
- CB1 EMAX, in parentheses: maximum efficacy at 10 μM [3]: (-38) %
- Potential new finding: activity at CB1 (in words) [3]: CB1 inverse agonist; Monoamine transporter activator
- NET IMAX, in parentheses: maximum efficacy at 10 μM [8]: (-26) %
- Potential new finding: activity at NET (in words) [8]: CB1 inverse agonist; Monoamine transporter activator
- Potential new finding: activity at SERT (in words) [2]: CB1 inverse agonist; Monoamine transporter activator
- SERT IMAX, in parentheses: maximum efficacy at 10 μM [2]: (-20) %
- DAT IMAX, in parentheses: maximum efficacy at 10 μM [13]: (-67) %
- DAT transport activation [13]: 67.2%
- Potential new finding: activity at DAT (in words) [13]: CB1 inverse agonist; Monoamine transporter activator

From publication PMC6553708 (PLoS ONE, 2019)
